Entries after “also recorded” stand apart in the source; their conditions may differ.
Tests used:
Ts65Dn mice [1] = test: Novel object recognition task; format: in vivo; details: for object novelty discrimination (novel object recognition task): Ts65Dn mice
Source text: (§1) FIG. 5 represents the effect of bumetanide systemic treatment on cognitive functions in behavioral tasks in Ts65Dn mice. […] (B) Top, schematic representation of the contextual fear conditioning test. […] (C) Top, schematic representation of the object location test. […] (D) Top, schematic representation of the novel object recognition task. […] For all panels, histograms represent average±SEM, whereas circles indicate data from single animals.

hippocampal CA3CA1 LTP = test: Hippocampal CA3-CA1 LTP (fEPSP slope after TBS) in hippocampal slices; format: cell-based, Ts65Dn mice; details: bath application of bumetanide (10 μM), Ts65Dn slices, last 5 min of recordings, 60 min after TBS
Experimental: FIG. 4 represents the effect of bumetanide bath application on hippocampal CA3CA1 LTP in Ts65Dn mice. […] Numbers in parentheses: number of animals utilized. Insets: Average of 10 fEPSP traces recorded for each experimental group before (continuous line) and 60 min after TBS (dashed line). Stimulus artefacts have been deleted from traces for clarity. Scale bars: vertical, 1 mV; horizontal, 10 ms.

[2] = system: hippocampal CA3 pyramidal neurons; test: Whole-cell voltage clamp recordings of spontaneous excitatory postsynaptic currents (sEPSCs) in acute brain slices; format: cell-based, Ts65Dn mice; details: acute bumetanide application, P15 Ts65Dn slices, -70 mV
Source text: FIG. 1 represents the effect of acute bumetanide on the spontaneous activity in Ts65Dn mice at P15 compared to control values. Whole-cell voltage clamp recordings of spontaneous excitatory postsynaptic currents (sEPSCs) at −70 mV from individual hippocampal CA3 pyramidal neurons in acute […] brain slices from P15 Ts65Dn. (A) Representative traces of sEPSCs recorded from Ts65Dn mice in control and in the presence of bumetanide. (B) Average values of frequency of sEPSCs recorded in control mice (n=9), in Ts65Dn mice (n=9) **p<0.006 (two-tails two-samples t-test) and with bumetanide application (n=9), ***p<0.001 (two-tails paired t-test).

Ts65Dn mice [3] = test: Object location test; format: in vivo
Source text: as §1

CA1 pyramidal neurons = test: Cell-attached recording of spontaneous spiking activity in acute hippocampal slices; format: cell-based, Ts65Dn mice; details: Ts65Dn neurons
Ts65Dn mice [4] = test: Contextual fear conditioning test; format: in vivo; details: for associative memory (contextual fear conditioning): Ts65Dn mice
Source text: as §1

[5] = system: CA1 hippocampal pyramidal neurons; test: Gramicidin perforated patch-clamp of GABA currents (reversal potential EC1) in hippocampal slices; format: cell-based, Ts65Dn and WT mice; details: for EC1 values: 20 min after bath application of bumetanide (10 μM)
Source text: The vertical dotted lines indicate the value of the reversal potential on the x axis. Insets, sample traces of GABA-induced currents at different holding potentials. Scale bars: vertical, 50 pA; horizontal, 50 ms. […] Average resting potentials (dotted lines) were not different in Ts65Dn and WT neurons.

[6] = system: children with Down syndrome; details: even at doses associated with adverse effects; cited from earlier work
[7] = summary statement, duration not stated

## CCCCNc1cc(C(=O)O)cc(S(N)(=O)=O)c1Oc1ccccc1 [bumetanide]
Ts65Dn mice [1]; [7]
  novel object recognition test: rescues the behavioral deficient novel object recognition
Ts65Dn mice [1]; treatment for 1 week
  object novelty discrimination (novel object recognition task): restored object novelty discrimination
Ts65Dn mice [1]; treatment for 4 weeks
  object novelty discrimination (novel object recognition task): restored object novelty discrimination
Hippocampal CA3CA1 LTP
  LTP (increase in the slope of fEPSP): restores LTP; also recorded: rescued this deficit
[2]
  ongoing excitatory glutamatergic activity (frequency of sEPSCs): reduces elevated glutamatergic activity
Ts65Dn mice [3]; after 1 week of treatment
  spatial memory (object location test): rescued spatial memory deficits
Ts65Dn mice [3]; after 4 weeks of treatment
  spatial memory (object location test): rescued spatial memory deficits
CA1 pyramidal neurons; co-treatment GABA and bumetanide (10 μM)
  spike frequency increase induced by GABA: reverted this effect
Ts65Dn mice [4]; bumetanide systemic treatment for 1 week (1W)
  associative memory (contextual fear conditioning): rescued memory deficit
Ts65Dn mice [4]; bumetanide systemic treatment for 4 weeks (4W)
  associative memory (contextual fear conditioning): rescued memory deficit
Ts65Dn mice [4]; [7]
  memory tests: rescues the behavioral deficient novel object recognition and memory tests
[5]; Ts65Dn cells
  EC1 values: rescued the depolarized EC1
[5]; WT mice
  EC1 values: unaltered
[5]; Ts65Dn mice, summary statement
  polarity of the actions of GABA: restores LTP, hyperpolarizing GABA actions

## NC(=O)CN1CCCC1=O [piracetam]
[6]
  cognitive and behavioral measures: neither cognitive nor behavioral measures demonstrated improvement

## NCCCC(=O)O [GABA]
CA1 pyramidal neurons; bath application of GABA (10 μM), 10-12 weeks of age
  spike frequency: increased spike frequency

Reference: US9822368B2, “Modulators of intracellular chloride concentration for treating down syndrome” (Fondazione Istituto Italiano di Tecnologia, priority 2013, dated 2017)
